In patent US20250381277A1, “COMPOSITIONS AND METHODS FOR TREATMENT OF NEUROLOGICAL DISORDERS” (Dana-Farber Cancer Institute, Inc., priority 2022, published 2025):
“Also recorded” adds a separate entry of the source.

Tested on: 5XFAD mice
Test: Weekly intravenous or intranasal cyclic RGD (Cilengitide) administration to 5XFAD mice: microglial proinflammatory responses
Assay type: in vivo, mouse
Details: vs saline
Method: (A) Schematic outline of cyclic RGD (Cilengitide) administration. Weekly intravenous injection (25 mg/kg) or intranasal delivery (10 mg/kg) of Cilengitide or vehicle control (saline) into 5XFAD mice starting at 6-mo of age for 1 or 2 months. Microglial proinflammatory responses were analyzed after 1-mo or 2-mo treatment. […] IV injection of Cilengitide for 1 month reduced the percentage of CD11c^+ microglia by 50% and decreased CD11c^+ microglial TNF-α production by ˜50% in 5XFAD mice (n=3). […]. […] IV injection of Cilengitide for 2 months reduced the percentage of CD11c+ microglia by 60% and decreased CD11c+ microglial TNF-α production by 55% in 5XFAD mice compared with vehicle (saline) treated control mice (n=3). *p<0.05, **p<0.01, ***p<0.001.
Weekly administration of cyclic RGD (Cilengitide) was given intravenously or intranasally to 6-mo old mice, continuing for 1 or 2 months. Microglial proinflammatory responses and Aβ plaque pathology were analyzed after 1-mo or 2-mo of treatment (FIG. 43A).

[1] = intranasal 10 mg/kg weekly, 1 month
[2] = intranasal 10 mg/kg weekly, 2 months

CC(C)[C@H]1C(=O)N[C@@H](CCCN=C(N)N)C(=O)NCC(=O)N[C@@H](CC(=O)O)C(=O)N[C@H](Cc2ccccc2)C(=O)N1C [Cilengitide]
decrease of CD11c^+ microglial TNF-α production (IV 25 mg/kg weekly, 1 month): ~50% | reduction of percentage of CD11c^+ microglia (IV 25 mg/kg weekly, 1 month): 50% | decrease of CD11c+ microglial TNF-α production (IV 25 mg/kg weekly, 2 months): 55% | reduction of percentage of CD11c+ microglia (IV 25 mg/kg weekly, 2 months): 60% | CD11c^+ microglia (in words) [1]: decrease; also recorded: decreased tendency | reduction of TNF-α production by CD11c^+ microglia [1]: ~35% | decrease of percentage of CD11c+ microglia [2]: 35% | reduction of TNF-α expression by CD11c+ microglia [2]: ~45%
